Laboratory results as given in publication PMC6530635, “A Novel Single-Site Mutation in the Catalytic Domain of Protoporphyrinogen Oxidase IX (PPO) Confers Resistance to PPO-Inhibiting Herbicides” (Frontiers in Plant Science, 2019).
Where two headings read alike, the source gives them in different places.

Legend:
[1] = system: Amaranthus palmeri MIS-D population; set-up: method as in Salas-Perez et al., 2017; details: ref Salas-Perez et al., 2017, cited from earlier work; for Frequency of resistant plants / Response of MIS-D to 1X dose: MIS-D field population
[2] = system: Amaranthus palmeri R39P population; assay type: in vivo; details: for Frequency of resistant plants: R39P F1 population, 2X recommended dose, 21 DAT, 25 seedlings
[3] = target: recombinant Amaranthus tuberculatus PPO2 wild-type enzyme (Amaranthus tuberculatus, UniProt Q0NZW9); assay: biochemical
[4] = system: Amaranthus palmeri (Palmer amaranth) populations MIS-D, R39P, R43P and SS; assay type: in vivo; details: visual injury 21 DAT, foliar spray

Sequence of recombinant Amaranthus tuberculatus PPO2 wild-type enzyme (Q0NZW9 1-534): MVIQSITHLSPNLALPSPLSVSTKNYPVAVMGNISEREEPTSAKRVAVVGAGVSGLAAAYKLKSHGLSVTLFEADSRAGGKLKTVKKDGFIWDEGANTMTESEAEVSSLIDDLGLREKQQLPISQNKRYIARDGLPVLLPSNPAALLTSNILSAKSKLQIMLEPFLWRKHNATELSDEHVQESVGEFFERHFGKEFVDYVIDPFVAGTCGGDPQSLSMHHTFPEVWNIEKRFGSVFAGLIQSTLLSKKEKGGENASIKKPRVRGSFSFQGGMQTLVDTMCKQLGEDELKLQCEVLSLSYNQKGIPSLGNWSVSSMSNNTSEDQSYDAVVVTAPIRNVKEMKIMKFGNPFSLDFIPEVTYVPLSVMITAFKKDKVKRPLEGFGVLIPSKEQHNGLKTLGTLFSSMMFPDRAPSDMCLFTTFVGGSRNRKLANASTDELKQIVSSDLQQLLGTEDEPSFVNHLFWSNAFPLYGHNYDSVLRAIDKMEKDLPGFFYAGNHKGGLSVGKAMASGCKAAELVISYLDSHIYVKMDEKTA

SMILES	Frequency of resistant plants ([1]; 1X dose) [%]	Frequency of resistant plants [2] [%]	IC50 [3] [nM]	Response of MIS-D to 1X dose [1]	also measured
O=C(O)c1cc(Oc2ccc(C(F)(F)F)cc2Cl)ccc1[N+](=O)[O-] [Acifluorfen]	1	8	18.5		Mortality ([1]; MIS-D, 1X dose): > 90%; Survival rate ([2]; in vivo): < 20%
C=CCOC(=O)C(C)(C)OC(=O)c1cc(-n2c(=O)cc(C(F)(F)F)n(C)c2=O)ccc1Cl [Butafenacil]			0.00896		
Cc1nn(-c2cc(CC(Cl)C(=O)O)c(Cl)cc2F)c(=O)n1C(F)F (stereo not shown) [Carfentrazone]		64	0.196	resistant	Frequency of resistant plants ([2]; listed as carfentrazone): ≥ 40%
C#CCN1C(=O)COc2cc(F)c(N3C(=O)C4=C(CCCC4)C3=O)cc21 [Flumioxazin]	40	60	0.039	resistant	Frequency of resistant plants ([2]; listed as flumioxazin): ≥ 40%
COC(=O)CSc1cc(/N=c2\sc(=O)n3n2CCCC3)c(F)cc1Cl [Fluthiacet-methyl]			0.669	resistant	
CS(=O)(=O)NC(=O)c1cc(Oc2ccc(C(F)(F)F)cc2Cl)ccc1[N+](=O)[O-] [Fomesafen]	42		1.32	resistant	Survival rate ([2]; R39P, 2X dose): < 20%; ED50 (dose causing 50% herbicide injury) ([4]; MIS-D field population, PPO-resistant): 124 (101–147) g ai ha^-1; ED50 (dose causing 50% herbicide injury) ([4]; R39P F1 population, PPO-resistant): 143 (122–165) g ai ha^-1; ED50 (dose causing 50% herbicide injury) ([4]; R43P F1 population, PPO-resistant): 187 (174–202) g ai ha^-1; ED50 (dose causing 50% herbicide injury) ([4]; SS population, PPO-sensitive): 12 (10–13) g ai ha^-1
CCOC(=O)C(C)OC(=O)c1cc(Oc2ccc(C(F)(F)F)cc2Cl)ccc1[N+](=O)[O-] (stereo not shown) [Lactofen]	23	40	0.056	resistant	Frequency of resistant plants ([2]; listed as lactofen): ≥ 40%
CC(C)Oc1cc(-n2nc(C(C)(C)C)oc2=O)c(Cl)cc1Cl [Oxadiazon]			0.7		
CCOc1cc(Oc2ccc(C(F)(F)F)cc2Cl)ccc1[N+](=O)[O-] [Oxyfluorfen]			0.0342		
C#CCN(C)c1c(C#N)cnn1-c1nn2c(c1Cl)CCCC2 [Pyraclonil]					IC50 ([3]; read-out: Wild type sensitivity [IC50]): 1.39 nM
CCOC(=O)COc1cc(-c2nn(C)c(OC(F)F)c2Cl)c(F)cc1Cl [Pyraflufen-ethyl]			0.0519	resistant	
CC(C)N(C)S(=O)(=O)NC(=O)c1cc(-n2c(=O)cc(C(F)(F)F)n(C)c2=O)c(F)cc1Cl [Saflufenacil]					Survival rate ([2]; in vivo): < 20%
Cc1nn(-c2cc(NS(C)(=O)=O)c(Cl)cc2Cl)c(=O)n1C(F)F [Sulfentrazone]			17.5		
